This data set can be described thus: in vitro. The settings on record: human, hela cells, % viability.

We go through 57 compounds from publication PMC12040169 (PLOS Biology, 2025).

The structures appear in SMILES notation.

Broadly, the viability is a read-out of living cells in per cent, often relative to untreated cells. As to `Cc1ccccc1Cc1cccc(C2CCN(S(=O)(=O)c3cn(C)nc3C)CC2)n1` [CBK286141], the viability at 28.5 h, 10 µM is 86.7%.

As for `Cc1cc(N2CCN(Cc3nc(C(C)(C)C)no3)CC2)nc(C(C)C)n1` [CBK305333], the viability at 28.5 h, 10 µM was found to be 96.3%.

As to `CCOCCCC(=O)N1CCn2c(nnc2-c2cncc(Br)c2)C1` [CBK304764], the viability at 28.5 h, 10 µM was found to be 91.5%.

For the compound `CN(C)c1ccc(C(=O)N2CCC3(CC2)OCc2cc(Cl)ccc2O3)cc1` [CBK061067], under “bulk resorufin, single well”, the viability at 28.5 h, 10 µM is 87.8%.

As to `Cc1cc(C)n(CC2CCCCN2CC(=O)NC(C)c2ccco2)n1` (stereo not drawn) [CBK305331], the viability at 28.5 h, 10 µM is 87.9%.

Consider `CC(=O)Nc1cccc(-n2nnnc2SCC(=O)N2CCNC2=O)c1` [CBK305043], for which the viability at 28.5 h, 10 µM turned out to be 88.5%.

Regarding `COc1cc(CN2CCC(N3CCN(c4ccccc4)CC3)CC2)ccc1OCc1ccccc1` [CBK264655G], the viability at 28.5 h, 10 µM is 95.6%.

Consider `Fc1ccccc1CN(CCCn1ccnc1)CC1CCOC1` (stereo not drawn) [CBK283031], for which the viability at 28.5 h, 10 µM came to 104%.

In the case of `COc1ccc2[nH]cc(CCNC(=O)c3ccc(Cl)c(Cl)c3)c2c1` [CBK115870], the viability at 28.5 h, 10 µM is 107%.

Turning to `COc1ccc([N+](=O)[O-])cc1NC(=O)CSc1nnnn1C` [CBK268950], the viability at 28.5 h, 10 µM was 93%.

With `COc1ccccc1CCNC(=O)N1CCC(Oc2cccnc2)CC1` [CBK307615], the viability at 28.5 h, 10 µM turned out to be 106%.

In the case of `CC(C)(C)c1cc(C[C@H]2CNCC[C@H]2CC(=O)N2CCN(c3ccccn3)CC2)no1` [CBK288799], the viability at 28.5 h, 10 µM was 87.4%.

Regarding `c1cc2c(cc1CN1CCC(Oc3cncc(OCCN4CCOCC4)n3)C1)OCO2` (stereo not drawn) [CBK084487], the viability at 28.5 h, 10 µM turned out to be 96.7%.

Take `COc1ccc(Nc2nc(-c3cccc(N)c3)cnc2N)cc1` [CBK063585]: the viability at 28.5 h, 10 µM was determined as 95.9%.

Consider `Brc1cn2ccnc2c(Nc2ccc3[nH]ccc3c2)n1` [CBK037449], for which the viability at 28.5 h, 10 µM stood at 102%.

Take `Nc1ccc(Sc2nccnc2N2CCCC2)cc1` [CBK089520]: the viability at 28.5 h, 10 µM worked out at 94.4%.

Turning to `Cc1cccc(C(=O)Nc2nnc(C3=COCCO3)o2)c1` [CBK287406], the viability at 28.5 h, 10 µM worked out at 94%.

Consider `O=C(O)c1cccc(-c2cncc(NCc3ccncc3)n2)c1` [CBK037915], for which the viability at 28.5 h, 10 µM is 106%.

Take `COc1cccc2cc(C(=O)NC3CC3)oc12` [CBK149813]: the viability at 28.5 h, 10 µM was 97.8%.

Consider `O=C(O)CCC(=O)N1CCCC2(CCN(Cc3ccccc3)C2)C1` (stereo not drawn) [CBK136890], for which the viability at 28.5 h, 10 µM worked out at 97%.

Take `COC(=O)c1c(C(C)(C)C)c(O)c2ccoc2c1OC` [CBK007577]: the viability at 28.5 h, 10 µM amounted to 94.2%.

`CC(C)COC(=O)N1CCC2(CC1)CC(=O)N(Cc1ccc(S(C)(=O)=O)cc1)C2=O` [CBK155948]: the viability at 28.5 h, 10 µM was 103%.

Turning to `CCN(CC)C(=O)c1c(F)ccc(F)c1C(=O)O` [CBK022303], the viability at 28.5 h, 10 µM worked out at 85%.

For the compound `COc1ccc2cc(C(=O)NC3CCCN(C)C3)n(C)c2c1` (stereo not drawn) [CBK282541], the viability at 28.5 h, 10 µM was found to be 85.1%.

On to `O=C(Nc1ccccc1)N(O)CC(O)COc1ccccc1` (stereo not drawn) [CBK288399], for which the viability at 28.5 h, 10 µM was 90.7%.

In the case of `CC(CCCC(C)(C)O)NCCO` (stereo not drawn) [CBK262340], the viability at 28.5 h, 10 µM was found to be 96.3%.

As for `C=C(C)Cn1c(SCC(=O)O)nnc1-c1ccccc1` [CBK262737], the viability at 28.5 h, 10 µM worked out at 91.9%.

In the case of `COc1ccc(N)cc1OCCn1ccnc(N2CCNCC2)c1=O` [CBK024211C], the viability at 28.5 h, 10 µM is 98.3%.

Consider `Cn1cccc1C(=O)NCCNC(=O)c1cc2ccccc2[nH]1` [CBK297894], for which the viability at 28.5 h, 10 µM was 87.7%.

For the compound `CC(=O)Nc1ccc(S(=O)(=O)N2CCN(c3ccc([N+](=O)[O-])cc3C(F)(F)F)CC2)cc1` [CBK264944], the viability at 28.5 h, 10 µM came to 112%.

As to `CC(=O)Oc1cccc(NC(=O)CC2Sc3ccccc3NC2=O)c1` (stereo not drawn) [CBK261792], the viability at 28.5 h, 10 µM came out at 92%.

On to `CCOC(=O)N1CCN(C(C(=O)O)c2c[nH]c3cc(OCc4ccccc4)ccc23)CC1` (stereo not drawn) [CBK286689], for which the viability at 28.5 h, 10 µM came to 97%.

`CC1(C)CC(CCNC(=O)CCC(=O)O)(c2ccccc2)CCO1` (stereo not drawn) [CBK218198]: the viability at 28.5 h, 10 µM was 85.7%.

Turning to `Cc1nn(C)c(C)c1CC(=O)NC1CCN(c2c(F)cccc2F)C1` (stereo not drawn) [CBK306307], the viability at 28.5 h, 10 µM turned out to be 83.2%.

Turning to `CCN1CCN(c2ccc(NC(=O)Cc3cn4ccsc4n3)cc2)CC1` [CBK305892], the viability at 28.5 h, 10 µM amounted to 81.3%.

On to `NS(=O)(=O)c1ccc(CNC(=O)c2ccc(-c3ccc(OC(F)(F)F)cc3)nc2)cc1` [CBK156246], for which the viability at 28.5 h, 10 µM was 84.1%.

In the case of `CC(=O)N[C@@H](Cc1ccccc1)C(=O)N1CC[C@H]2NC(=O)[C@H](Cc3ccccc3)NC(=O)C3(C/C=C/C[C@@H]2C1)CCOCC3` [CBK292190], the viability at 28.5 h, 10 µM was 82.2%.

As to `O=C(O)c1[nH]c2ccccc2c1C(c1cc(Cl)cc([N+](=O)[O-])c1O)c1c(C(=O)O)[nH]c2ccccc12` [CBK267814], the viability at 28.5 h, 10 µM came to 95.6%.

As for `O=S(=O)(Nc1nnn[nH]1)c1ccc(Br)cc1C(F)(F)F` [CBK062388], the viability at 28.5 h, 10 µM was determined as 104%.

In the case of `Cc1ccc(S(=O)(=O)NC[C@H]2C[C@@H]3CC[N@]2C[C@@H]3CN2CCOCC2)cc1` [CBK288758], the viability at 28.5 h, 10 µM was 94.2%.

In the case of `Cc1ccccc1OCCn1c(=N)n(CC(C)C)c2ccccc21` [CBK265392B], the viability at 28.5 h, 10 µM was determined as 94.9%.

Take `O=C(CCc1nc(O)c2c3c(sc2n1)CCCC3)NCC(=O)Nc1ccccc1Br` [CBK295348]: the viability at 28.5 h, 10 µM was determined as 101%.

Consider `Cc1c(CN(Cc2ccccc2)CC2CCCO2)cnn1C` (stereo not drawn) [CBK283263], for which the viability at 28.5 h, 10 µM came to 94.3%.

For `O=S(=O)(NCc1nc2ccccc2[nH]1)c1ccc(Cl)c(Cl)c1` [CBK261137], the viability at 28.5 h, 10 µM amounted to 86.2%.

For `COc1cc(C(=O)O)cc2c1NC(c1ccc(C(=O)O)cc1)C1CC=CC21` (stereo not drawn) [CBK287018], the viability at 28.5 h, 10 µM was determined as 90.3%.

With `O=C1CCC(=O)N1CCOc1nccnc1N1CCN(CC2CC2)CC1` [CBK084305], the viability at 28.5 h, 10 µM was 93.9%.

Take `CN(C)CCN(C)c1nc(-c2ccc(C(=O)O)cc2)cn2ccnc12` [CBK037880]: the viability at 28.5 h, 10 µM is 96.7%.

Consider `Cc1ccc2nc(-c3ccc(N)cc3)sc2c1S(=O)(=O)O` [CBK261510], for which the viability at 28.5 h, 10 µM was found to be 96.3%.

Turning to `Sc1nnc(COc2ccc(Cl)cc2Cl)n1Cc1ccccc1` [CBK263138], the viability at 28.5 h, 10 µM stood at 88.2%.

Turning to `Cc1cc(C)c2nn[nH]c2c1CN1CCCC1` [CBK018196], the viability at 28.5 h, 10 µM amounted to 100%.

For `O=C([C@@H]1Cc2[nH]cnc2CN1Cc1cc2ccccc2o1)N1CCOCC1` [CBK288977], the viability at 28.5 h, 10 µM worked out at 114%.

For `COc1cccc(C(=O)N2CCN(C(=O)Nc3ccccc3Br)CC2)c1` [CBK154783], the viability at 28.5 h, 10 µM was 94.4%.

Consider `CN(C)c1ccc(-c2ccnc3nc(N)ccc23)cc1` [CBK067640], for which the viability at 28.5 h, 10 µM is 85.8%.

Take `C[C@H](c1ccccc1)n1c(=O)[nH]c2ncc(-c3cccc4cccnc34)nc21` [CBK064237]: the viability at 28.5 h, 10 µM was 44.4%.

As to `Cc1ccc(NC(=O)N2CCCC(C(=O)O)C2)cc1` (stereo not drawn) [CBK161371], the viability at 28.5 h, 10 µM turned out to be 89.5%.

In the case of `Cc1cc(COc2nccnc2OC2CCN(Cc3ccccc3F)CC2)no1` [CBK082948T], the viability at 28.5 h, 10 µM was 109%.

Take `COc1ncc(-c2cc(N3CCN(c4ccccn4)CC3)ncn2)c(OC)n1` [CBK037707]: the viability at 28.5 h, 10 µM was found to be 102%.
